For this assay, the system named is SARS-CoV-2. The format is cell-based.

With `NCC1CCC(C(=O)[O][Ca][O]C(=O)C2CCC(CN)CC2)CC1` (stereo not shown) [Ca-TA, Calcium bis-tranexamate], the “antiviral efficacy against SARS-CoV-2 infections and its emerging variants” value was “desired antiviral efficacy”.

Source of the values: patent US20230355558A1 (priority 2022, published 2023).
